# “And” between values parts separate entries of the source, which are not always exact repeats. Equal entries are not always repeated.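 Five concentrations, 48 hours, 96-well plates. GI50 = concentration required for 50% inhibition of growth. TGI denotes the concentration required for complete inhibition of growth.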
# Assays:
# Test in all cases: NCI tumour cell line growth inhibition, 48 h
# [1] = system: SK-OV-3 ovarian
# [2] = system: OVCAR-3 ovarian
# [3] = system: LOX IMVI melanoma
# [4] = system: CAKI-1 renal
# [5] = system: OVCAR-8 ovarian
# [6] = system: NCI-H23 lung
# [7] = system: SK-MEL-28 melanoma
# [8] = system: SR leukemia
# [9] = system: UO-31 renal
# [10] = system: SNB-19 CNS
SMILES,TGI [1],TGI [2],TGI [3],TGI [4],TGI [5],TGI [6],TGI [7],TGI [8],TGI [9],TGI [10],GI50 [1],GI50 [2],GI50 [3],GI50 [4],GI50 [5],GI50 [6],GI50 [7],GI50 [8],GI50 [9],GI50 [10]
CCOC(OC1=C(C#N)CCC1)C(CC)[Se]c1ccccc1 (stereo unspecified),> 100 µM,58.5 µM,17.7 µM,> 100 µM,65.2 µM,25.1 µM,90.4 µM,31.1 µM,73.6 µM,> 100 µM,,,,,,,,,,
COc1ccc(N=Cc2ccc(N(CCC#N)CCC#N)cc2)cc1,> 100 µM,> 100 µM,> 100 µM,> 100 µM,> 100 µM,> 100 µM,> 100 µM,> 100 µM,> 100 µM,> 100 µM,,,,,,,,,,
Cc1ccc2c(c1)sc(-c1ccc(N(C)C)cc1)[n+]2C,7.91 µM,15 µM,21.8 µM,> 56.2 µM,34.8 µM,> 48.8 µM,20.9 µM,19.4 µM,> 100 µM,21 µM,2.04 µM,0.685 µM,1.28 µM,8.84 µM,1.41 µM,0.987 µM,3.3 µM,0.125 µM,18.9 µM,1.95 µM
CC1(C)C(=O)/C(=C\c2ccco2)C[C@]2(C)[C@H]3CC=C4[C@@H]5C[C@](C)(C(=O)O)CC[C@]5(C)CC[C@@]4(C)[C@]3(C)CC[C@@H]12,29.3 µM,26.1 µM,22.2 µM,28.2 µM,42.4 µM,25.4 µM,31.1 µM,> 100 µM,19.9 µM,22.7 µM,14.4 µM,10.9 µM,9.56 µM,10.6 µM,6 µM,8.89 µM,15.1 µM,9.85 µM,5.01 µM,10.2 µM
O=C1Cc2c(-c3ccccc3)cc(-c3cccc(Cl)c3)nc2-c2ccccc2N1,9.49 µM,6.84 µM,7.28 µM,5.06 µM,5.4 µM,16.8 µM,25.8 µM,> 100 µM,11.2 µM,3.59 µM,,,,,,,,,,
CCN(CC)C(=S)SSC1CCCCC1,75 µM,,24.3 µM,25.2 µM,34.9 µM,48.7 µM,42.2 µM,4.36 µM,25.7 µM,> 100 µM,31.2 µM,,8.6 µM,11.9 µM,15.8 µM,20.8 µM,19.9 µM,0.0656 µM,12.1 µM,32.6 µM
O=C(Nc1ccc(Br)cc1)c1cc(Br)cc(Br)c1O,> 100 µM,8 µM,10.1 µM,4.59 µM,11 µM,6.8 µM,31.4 µM,> 100 µM,11.5 µM,> 100 µM,3.14 µM,2.95 µM,3.24 µM,1.73 µM,2.89 µM,2.18 µM,4.71 µM,3.87 µM,3.1 µM,3.55 µM
CN(C)CN1C(=O)S/C(=C2\C(=O)N(CN(C)C)c3ccccc32)C1=O,> 100 µM,> 100 µM,73.2 µM,97.9 µM,> 100 µM,49.2 µM,> 100 µM,45.3 µM,91.8 µM,> 100 µM,,,,,,,,,,
N#C/C(=C(\O)C(=O)O)c1ccc(-c2cccc3ccccc23)cc1,> 100 µM,> 100 µM,> 100 µM,> 100 µM,> 100 µM,> 100 µM,> 100 µM,> 100 µM,> 100 µM,> 100 µM,,,,,,,,,,
CCCCS(=N)(=O)CC[C@H](N)C(=O)O (stereo partly specified),> 10000 µM,> 10000 µM,,5000 µM and > 1330 µM,2920 µM and > 2770 µM,5000 µM and > 10000 µM,> 10000 µM,5000 µM and > 10000 µM,2700 µM and > 10000 µM,> 10000 µM,> 10000 µM,> 10000 µM,2.12 µM,> 1080 µM,,> 10000 µM,> 10000 µM,3980 µM,> 10000 µM,> 10000 µM
Nc1ccc2c(c1)[O][Sn]([c]1ccccc1)([c]1ccccc1)[O]C2=O,43.8 µM,15.9 µM,11.5 µM,10.5 µM,28.2 µM,8.58 µM,12.4 µM,> 30.4 µM,26 µM,31.3 µM,14.7 µM,6.79 µM,3.57 µM,4.89 µM,13.2 µM,2.76 µM,5.02 µM,3.01 µM,12.5 µM,17.3 µM
O=C1OCC2=Nc3cccc4cccc(c34)N12,> 100 µM,> 100 µM,> 100 µM,> 100 µM,> 100 µM,> 100 µM,> 100 µM,> 100 µM,> 100 µM,> 100 µM,,,,,,,,,,
CCCCc1cc(O)ccc1O,> 100 µM,21.8 µM,63.6 µM,> 100 µM,> 100 µM,> 100 µM,> 100 µM,> 100 µM,28.1 µM,> 100 µM,64.5 µM,7.84 µM,14.6 µM,33 µM,28.2 µM,67.1 µM,78.7 µM,8.26 µM,10.8 µM,78.5 µM
CC(SC1=CC(=O)c2c(O)ccc(O)c2C1=O)C(=O)O (stereo unspecified),> 100 µM,53.1 µM,> 57.7 µM,72.2 µM,> 89.3 µM,> 90.4 µM,> 80.1 µM,> 100 µM,> 75.4 µM,> 100 µM,,,,,,,,,,
[Cl][Sn]([c]1ccccc1)[c]1ccccc1,32.7 µM,24.1 µM,13.5 µM,8.98 µM,17.2 µM,18.1 µM,3.62 µM,17.5 µM,30.9 µM,23.8 µM,18.4 µM,11.4 µM,3.81 µM,2.54 µM,11.5 µM,5.19 µM,1.58 µM,3.39 µM,17.2 µM,11.6 µM
O=C(O)C(Cc1ccc(O)c([N+](=O)[O-])c1)N1C(=O)c2ccccc2C1=O (stereo unspecified),> 100 µM,> 100 µM,> 100 µM,> 100 µM,> 100 µM,> 100 µM,> 100 µM,> 100 µM,> 100 µM,> 100 µM,,,,,,,,,,
